Where two headings read alike, the source gives them in different places.
Tests used:
[1] = system: Leishmania infantum promastigotes; test: In vitro antileishmanial activity on L. infantum promastigotes (MTT, 72 h); assay type: cell-based; conditions: Leishmania infantum, read-out: Anti-L. infantum Promastigote Activity EC50
Experimental: Luciferase-expressing Leishmania infantum was kindly provided by Professor Thierry Lang of the Institut Pasteur. L. infantum promastigotes were routinely grown at 27 °C in Schneider’s Drosophila Medium (Dominique […] SAS, Bernolsheim, France) supplemented with 10% fetal calf serum, 2% human urine, sodium pyruvate 0.04 mM, hemin 0.1 µg/mL, HEPES 5 mM, streptomycin 100 µg/mL, penicillin 100 U/mL, L-glutamine 2 mM (culture medium). The in vitro evaluation of the antileishmanial activity of the tested compound on L. infantum promastigotes forms was assessed according to the Mosmann protocol with slight modifications. […] Appropriate controls treated with DMSO, Miltefosine, Amphotericin B and Fexinidazole sulfone (reference drugs purchased from Sigma-Aldrich, Saint-Louis, MO, USA) were added to each set of experiments. The plates were incubated at 27 °C for 72 h, Then, each plate-well was microscope-analyzed to detect any precipitate formation. Afterward, 20 µL of MTT (3-(4,5-dimethylthiazol-2-yl)-2,5-diphenyltetrazolium bromide) (Sigma-Aldrich, Saint-Louis, MI, USA) solution (5 mg/mL in PBS) were added to each well and incubated at 27 °C for 4 h. The reaction was then stopped by the addition of 100 µL of 10% sodium dodecyl sulfate—50% isopropanol. Plates were shaken vigorously at 400 rpm for 10 min. […] EC50 values represent the mean value calculated from at least three separate experiments.

[2] = In vitro cytotoxicity on the human hepatic HepG2 cell line (MTT, 72 h); conditions: human
Experimental: (§1) HepG2 cell line (hepatocarcinoma cell line purchased from ATCC, ref HB-8065) was maintained at 37 °C, 5% CO2 with 90% humidity in MEM supplemented with 10% fetal bovine serum, 1% L-glutamine (200 mM) and penicillin (100 U/mL)/streptomycin ([…]) (complete MEM medium). The tested molecules’ cytotoxicity was assessed according to the method of Mosmann with slight modifications. Briefly, 5 × 10^3 cells in 100 μL of complete medium were inoculated into each well of 96-well plates and incubated at 37 °C in a humidified 5% CO2. After 24 h incubation, 100 μL of medium with various product concentrations dissolved in DMSO (final concentration less than 0.5% v/v) were added and the plates were incubated for 72 h at 37 °C. Triplicate assays were performed for each sample. Each plate well was then microscope-examined to detect possible precipitate formation before the medium was aspirated from the wells. Then, 100 μL of MTT (3-(4,5-dimethyl-2-thiazolyl)-2,5-diphenyl-2H-tetrazolium bromide) solution (0.5 mg/mL in medium without FCS) were then added to each well. Cells were incubated for 2 h at 37 °C, following which the MTT solution was removed and DMSO (100 μL) was added to dissolve the resulting blue formazan crystals. Plates were shaken vigorously (700 rpm) for 10 min. The absorbance was measured at 570 nm with 630 nm as reference wavelength using a TECAN Infinite F-200 spectrophotometer (Tecan Trading AG, Männedorf, Switzerland). DMSO was used as blank and doxorubicin (purchased from Sigma Aldrich, Saint Louis, MI, USA) as positive control. Cell viability was calculated as a percentage of control (cells incubated without compound). […] CC50 values represent the mean value calculated from three separate experiments.

HepG2 cell line = test: as above; conditions: for Selectivity INDEX (SI = CC50/EC50): HepG2 CC50 / L. infantum promastigote EC50; for CC50: read-out: HepG2 Cytotoxicity CC50, HepG2, 72 h, MTT
Experimental: as §1

[3] = In vitro cytotoxicity on the human monocyte THP-1 cell line (MTT, 72 h); assay type: cell-based; conditions: human; THP-1, 72 h, MTT
Experimental: The undifferentiated THP1 human monocyte cells (acute monocytic leukemia cell line purchased from ATCC, ref TIB-202) were routinely grown in RPMI 1640 medium (Life Technologies, Saint-Aubin, France) supplemented with 10% FCS (Life Technologies, Saint-Aubin, France), 100 U/mL penicillin, 100 µg/mL streptomycin and 2 mM L-glutamine at 37 °C, 5% CO2. The culture was maintained between 3.10^5 and 8.10^5 cells/mL. […] Wells were washed with RPMI and 100 µL of fresh complete medium was added. […] Then, 100 µL of MTT solution (0.5 mg/mL in medium) was added to each well. Cells were incubated for 2 h at 37 °C. […] Plates were shaken vigorously (700 rpm) for 10 min. […] (Palo Alto, CA, USA).

[4] = HepG2 cells (hepatocarcinoma cell line, ATCC HB-8065), HepG2 Cytotoxicity CC50, HepG2, 72 h, MTT

Compound	EC50 ([1]; L. infantum promastigotes, MTT)	CC50 at 72 h [2, 4]	Selectivity INDEX (SI = CC50/EC50) (HepG2 cell line)	melting point	EC50 [1]	CC50 at 72 h [2]	CC50 (HepG2 cell line)	CC50 at 72 h [3]
N#CCN1C(=O)S/C(=C\c2ccc([N+](=O)[O-])cc2)C1=O [Compound 14d, (Z)-2-(5-(4-Nitrobenzylidene)thiazolidine-2,4-dion-3-yl)acetonitrile]	24.8 ± 6.09 µM	109 ± 11 µM	4.4	193 to 195 °C	–	–	–	–
Cc1ccc(NC(=O)CN2C(=O)S/C(=C\c3ccccc3[N+](=O)[O-])C2=O)cc1 [Compound 24b, (Z)-N-(4-Methylphenyl)-2-(5-(2-nitrobenzylidene)thiazolidine-2,4-dion-3-yl) acetamide]	24.8 ± 6.68 µM	30.9 ± 3.97 µM	1.2	181 to 183 °C	–	–	–	–
O=C(CN1C(=O)S/C(=C\c2ccccc2[N+](=O)[O-])C1=O)Nc1ccccc1Cl [Compound 28b, (Z)-N-(2-Chlorophenyl)-2-(5-(2-nitrobenzylidene)thiazolidine-2,4-dion-3-yl) acetamide]	16.1 ± 4.32 µM	23 ± 3.2 µM	1.4	174 to 175 °C	–	–	–	–
O=C(CN1C(=O)S/C(=C\c2ccc([N+](=O)[O-])cc2)C1=O)Nc1ccc(Cl)cc1 [Compound 27d, (Z)-N-(4-Chlorophenyl)-2-(5-(4-nitrobenzylidene)thiazolidine-2,4-dion-3-yl) acetamide]	17.3 ± 4.17 µM	> 12.5 µM	>0.7	252 to 254 °C	–	–	–	–
O=C(CN1C(=O)S/C(=C\c2ccc([N+](=O)[O-])cc2)C1=O)Nc1ccc([N+](=O)[O-])cc1 [Compound 26d, (Z)-2-(5-(4-Nitrobenzylidene)thiazolidine-2,4-dion-3-yl)-N-(4-nitroyphenyl) acetamide]	–	–	>1.8	284 to 285 °C	14.1 ± 2.8 µM	> 25 µM	–	–
COc1ccc(NC(=O)CN2C(=O)S/C(=C\c3ccccc3[N+](=O)[O-])C2=O)cc1 [Compound 25b, (Z)-2-(5-(2-Nitrobenzylidene)thiazolidine-2,4-dion-3-yl)-N-(4-methoxyphenyl) acetamide]	22.3 ± 4.93 µM	23.3 ± 2.93 µM	1.1	204 to 205 °C	–	–	–	–
COc1cccc2c1C(=O)c1c(O)c3c(c(O)c1C2=O)C[C@@](O)(C(=O)CO)C[C@@H]3O[C@H]1C[C@H](N)[C@H](O)[C@H](C)O1 [Doxorubicin, reference compound]	–	–	–	–	–	–	200 ± 20 nM	2.2 ± 0.1 µM
NC(=O)CN1C(=O)S/C(=C\c2cccc([N+](=O)[O-])c2)C1=O [Compound 15c, (Z)-2-(5-(3-Nitrobenzylidene)thiazolidine-2,4-dion-3-yl)acetamide]	13.3 ± 7.75 µM	> 62.5 µM	>4.7	256 to 258 °C	–	–	–	–
O=C(CN1C(=O)S/C(=C\c2cccc([N+](=O)[O-])c2)C1=O)Nc1ccc([N+](=O)[O-])cc1 [Compound 26c, (Z)-2-(5-(3-Nitrobenzylidene)thiazolidine-2,4-dion-3-yl)-N-(4-nitroyphenyl) acetamide]	–	–	>3.5	264 to 266 °C	7.2 ± 1.48 µM	> 25 µM	–	–
O=C(CN1C(=O)S/C(=C\c2ccccc2[N+](=O)[O-])C1=O)Nc1ccccc1 [Compound 23b, (Z)-2-(5-(2-Nitrobenzylidene)thiazolidine-2,4-dion-3-yl)-N-phenylacetamide]	11.6 ± 3.43 µM	22.3 ± 0.59 µM	1.9	186 to 188 °C	–	–	–	–
O=C(CN1C(=O)S/C(=C\c2ccccc2[N+](=O)[O-])C1=O)Nc1ccc(Cl)cc1 [Compound 27b, (Z)-N-(4-Chlorophenyl)-2-(5-(2-nitrobenzylidene)thiazolidine-2,4-dion-3-yl) acetamide]	16.3 ± 3.85 µM	34.6 ± 3.03 µM	2.1	188 to 190 °C	–	–	–	–
C[C@@H]1[C@H](O)[C@@H](C)/C=C/C=C/C=C/C=C/C=C/C=C/C=C/[C@H](O[C@@H]2O[C@H](C)[C@@H](O)[C@H](N)[C@@H]2O)C[C@@H]2O[C@](O)(C[C@@H](O)C[C@@H](O)[C@H](O)CC[C@@H](O)C[C@@H](O)CC(=O)O[C@H]1C)C[C@H](O)[C@H]2C(=O)O [Amphotericin B, reference compound]	0.06 ± 0.02 µM	–	–	–	–	–	–	17.6 ± 3 µM
CCOC(=O)CN1C(=O)S/C(=C\c2ccc([N+](=O)[O-])cc2)C1=O [Compound 12d, Ethyl ((Z)-5-(4-nitrobenzylidene)thiazolidine-2,4-dion-3-yl)acetate]	11.6 ± 2.37 µM	101 to 125 µM	>10.8	136 to 138 °C	–	–	> 125000 nM	–
COc1cc(/C=C2\SC(=O)N(CC(=O)Nc3ccc(Cl)cc3)C2=O)cc(OC)c1OC [Compound 27e, (Z)-N-(4-Chlorophenyl)-2-(5-(3,4,5-trimethoxybenzylidene)thiazolidine-2,4-dion-3-yl)acetamide]	5 ± 1.98 µM	19.4 ± 2.05 µM	3.9	218 to 219 °C	–	–	–	–
CCCCCCCCCCCCCCCCOP(=O)([O-])OCC[N+](C)(C)C [Miltefosine, reference compound]	3.3 ± 0.8 µM	–	–	–	–	–	–	30 ± 4 µM
O=C(CN1C(=O)S/C(=C\c2ccccc2[N+](=O)[O-])C1=O)Nc1ccc([N+](=O)[O-])cc1 [Compound 26b, (Z)-2-(5-(2-Nitrobenzylidene)thiazolidine-2,4-dion-3-yl)-N-(4-nitroyphenyl) acetamide]	–	–	2.1	213 to 215 °C	14.6 ± 2.91 µM	30.1 ± 3.94 µM	–	–
O=C(CN1C(=O)S/C(=C\c2ccccc2[N+](=O)[O-])C1=O)c1ccccc1 [Compound 16b, (Z)-5-(2-Nitrobenzylidene)-3-(2-oxo-2-phenylethyl)thiazolidine-2,4-dione]	5.57 ± 1.28 µM	11 ± 2.28 µM	2.0	156 to 158 °C	–	–	–	–
O=C(CN1C(=O)S/C(=C\c2cccc([N+](=O)[O-])c2)C1=O)c1ccccc1 [Compound 16c, (Z)-5-(3-Nitrobenzylidene)-3-(2-oxo-2-phenylethyl)thiazolidine-2,4-dione]	3.22 ± 0.94 µM	> 12.5 µM	>3.9	160 to 162 °C	–	–	–	–
